# From patent US20020146787A1, “Coenzymes useful for the synthesis of L-carnitine” (Sigma-Tau Industrie Farmaceutiche Riunite S.p.A, priority 1998, published 2002)
# Tests used:
# pH stability for 1 h = format: physicochemical; conditions: pH range
# Protocol: (§1) The gamma-butyrobetainyl chloride thus obtained is suitable for the synthesis of gamma-butyrobetainyl-coenzyme A. Coenzyme A is first suspended in an iced mixture of 1M of sodium bicarbonate at pH 7.5-9.5 (preferably pH 8.5). To this is added a definite amount of gamma-butyrobetainyl chloride (preferably in excess) keeping the pH values under control. After 15-30 minutes the reaction is complete. The formation of gamma-butyrobetainyl-coenzyme A is checked by HPLC (Spherisorb, C18 column) and finally subjected to a further purification stage (ion-exchange chromatography on DOWEX 50). The purity is checked again by HPLC (Spherisorb, C18 column). The physicochemical properties were determined on the washed product (see following table).
# as §1, with “crotonobetainyl” for “gamma-butyrobetainyl”, “crotonobetainyl-coenzyme” for “gamma-butyrobetainyl-coenzyme”, “The purity is checked again by HPLC (Spherisorb, C18 column).” left out
# [1] = target: T1, L(−)-carnitine dehydratase (Escherichia coli, UniProt P31572); assay: L(−)-carnitine dehydratase activation test (formation of L(−)-carnitine from crotonobetaine); format: biochemical; conditions: 0.002 μmol cofactor, 10 min at 37° C.
# T1 construct: partly concentrated L(−)-carnitine dehydratase (without factor F showing any activity)
# Protocol: (§2) For the L(−)-carnitine dehydratase activation test according to the invention purified gamma-butyrobetainyl-coenzyme A is supplied (preferably 1-10 nmol) on potassium phosphate buffer (10 mM pH 7.5), which is added with partly concentrated L(−)-carnitine dehydratase (without factor F showing any activity) and the crotonobetaine solution to be metabolized (1M) and incubated at 37° C.
# (§3) The L(−)-carnitine formed was subsequently tested with an optical test with the aid of carnitine acetyltransferase (according to BERGMEYER (1970)). A similar procedure was adopted in the racemization reaction test, in which a solution of D(+)-carnitine (1M) was added in the place of crotonobetaine. The L(−)-carnitine formed can be determined exactly by prior testing of the system with known solutions of L(−)-carnitine.
# as §2, with “crotonobetainyl-coenzyme” for “gamma-butyrobetainyl-coenzyme”
# Formation of L(−)-carnitine from crotonobetaine by means of concentrated L(−)-carnitine dehydratase and gamma-butyrobetainyl-coenzyme A (BB-CoA) after 10 minutes' incubation at 37° C. on potassium phosphate buffer (10 mM, pH 7.5).
# Formation of L(−)-carnitine from crotonobetaine by means of concentrated L(−)-carnitine dehydratase and crotonobetainyl-coenzyme A (CB-CoA) after 10 minutes' incubation at 37° C. on potassium phosphate buffer (10 mM, pH 7.5).
# [2] = test system: system of racemization of carnitine; assay: Racemization reaction test (formation of L(−)-carnitine from D(+)-carnitine); format: biochemical; conditions: 0.002 μmol cofactor, 10 min at 37° C.
# Protocol: as §3
# Formation of L(−)-carnitine from D(+)-carnitine by means of a system of racemization of carnitine and gamma-butyrobetainyl-coenzyme A (BB-CoA) after 10 minutes' incubation at 37° C. on potassium phosphate buffer (10 mM, pH 7.5).
# Formation of L(−)-carnitine from D(+)-carnitine via a system of racemization of carnitine and crotonobetainyl-coenzyme A (CB-CoA) after 10 minutes' incubation at 37° C. on potassium phosphate buffer (10 mM, pH 7.5).
# [3] = Temperature stability (1 h); format: physicochemical
# Protocol: as §1
# as §1, with “crotonobetainyl” for “gamma-butyrobetainyl”, “crotonobetainyl-coenzyme” for “gamma-butyrobetainyl-coenzyme”
# Solubility = format: physicochemical; conditions: solvent in which soluble
# Protocol: as §1
# as §1, with “crotonobetainyl” for “gamma-butyrobetainyl”, “crotonobetainyl-coenzyme” for “gamma-butyrobetainyl-coenzyme”, “The purity is checked again by HPLC (Spherisorb, C18 column).” left out
# [4] = 0 μg L-carnitine dehydratase (no enzyme), 20 μmol crotonobetaine, pH 7.5
# [5] = 10 μg L-carnitine dehydratase, 0 μmol crotonobetaine (no substrate), pH 7.5
# [6] = 10 μg L-carnitine dehydratase, 20 μmol crotonobetaine, potassium phosphate buffer 10 mM pH 7.5
# [7] = 0 μg carnitine racemization system, 20 μmol substrate, pH 7.5
# [8] = 30 μg carnitine racemization system, 0 μmol substrate, pH 7.5
# [9] = 30 μg carnitine racemization system, 20 μmol substrate (head: Crotonobetaine, text: D(+)-carnitine), potassium phosphate buffer 10 mM pH 7.5
# T1 sequence (P31572 whole entry): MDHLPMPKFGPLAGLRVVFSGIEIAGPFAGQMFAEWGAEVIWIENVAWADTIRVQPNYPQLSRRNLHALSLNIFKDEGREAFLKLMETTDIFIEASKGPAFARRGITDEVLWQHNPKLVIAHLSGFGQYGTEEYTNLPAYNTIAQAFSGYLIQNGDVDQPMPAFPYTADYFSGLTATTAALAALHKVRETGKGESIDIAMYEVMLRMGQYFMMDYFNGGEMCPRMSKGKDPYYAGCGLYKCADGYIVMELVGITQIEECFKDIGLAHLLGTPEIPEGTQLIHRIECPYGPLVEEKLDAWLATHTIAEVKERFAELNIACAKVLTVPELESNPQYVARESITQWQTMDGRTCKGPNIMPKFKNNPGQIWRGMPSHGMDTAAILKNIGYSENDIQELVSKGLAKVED
SMILES,pH stability for 1 h (pH stability for 1 h),"Carnitine synthesis [1, 4] [µmol]","Carnitine synthesis [1, 5] [µmol]","Carnitine synthesis [1, 6] [µmol]","Carnitine synthesis [2, 7] [µmol]","Carnitine synthesis [2, 8] [µmol]","Carnitine synthesis [2, 9] [µmol]",Temperature stability (1 h) ([3]; 20° C. to 60° C.),Temperature stability (1 h) ([3]; −20° C. to 0° C.),Solubility (Solubility),Temperature stability (1 h) ([3]; 0° C. to 90° C.),Temperature stability (1 h) ([3]; −20° C.)
"CC(C)(COP(=O)(O)OP(=O)(O)OC[C@H]1O[C@@H](n2cnc3c(N)ncnc32)[C@H](O)[C@@H]1OP(=O)(O)O)[C@@H](O)C(=O)NCCC(=O)NCCSC(=O)/C=C/C[N+](C)(C)C [CB-CoA, crotonobetainyl-coenzyme A]",2-10,0,0,0.271,0,0,0.243,75%: 20 °C to 60 °C,100%: −20 °C to 0 °C,water,,
"CC(C)(COP(=O)(O)OP(=O)(O)OC[C@H]1O[C@@H](n2cnc3c(N)ncnc32)[C@H](O)[C@@H]1OP(=O)(O)O)[C@@H](O)C(=O)NCCC(=O)NCCSC(=O)CCC[N+](C)(C)C [BB-CoA, gamma-butyrobetainyl-coenzyme A]",3-10,0,0,0.18,0,0,0.162,,,water,>90%: 0 °C to 90 °C,100%: −20 °C
